The NIST ThermoML archive (doi:10.1016/j.jct.2006.05.006)
± gives the expanded uncertainty stated by the source.

Assay: xn = mol fraction of the nth substance listed
Conditions: 101 kPa, Liquid

CN1CCCC1=O [N-methylpyrrolidone] + Cc1ccccc1
Conditions	mass density [kg/m3]
293.15 K, x2 = 0	1032.66 ± 0.72
293.15 K, x2 = 0.0541	1024.34 ± 0.68
293.15 K, x2 = 0.1254	1013.29 ± 0.63
293.15 K, x2 = 0.1845	1004.06 ± 0.6
293.15 K, x2 = 0.2412	995.15 ± 0.62
293.15 K, x2 = 0.3154	983.34 ± 0.73
293.15 K, x2 = 0.3845	972.23 ± 0.84
293.15 K, x2 = 0.4521	961.22 ± 0.95
293.15 K, x2 = 0.5214	949.8 ± 1.1
293.15 K, x2 = 0.5865	938.94 ± 1.2
293.15 K, x2 = 0.6458	928.94 ± 1.3
293.15 K, x2 = 0.7124	917.57 ± 1.4
293.15 K, x2 = 0.7784	906.16 ± 1.5
293.15 K, x2 = 0.8425	894.94 ± 1.6
293.15 K, x2 = 0.9014	884.51 ± 1.8
293.15 K, x2 = 0.9784	870.71 ± 1.9
303.15 K, x2 = 0	1023.42 ± 0.66
303.15 K, x2 = 0.0482	1016 ± 0.63
303.15 K, x2 = 0.1235	1004.32 ± 0.57
303.15 K, x2 = 0.1856	994.6 ± 0.6
303.15 K, x2 = 0.2436	985.45 ± 0.68
303.15 K, x2 = 0.3145	974.17 ± 0.79
303.15 K, x2 = 0.3854	962.74 ± 0.9
303.15 K, x2 = 0.4521	951.88 ± 1
303.15 K, x2 = 0.5236	940.09 ± 1.1
303.15 K, x2 = 0.5852	929.81 ± 1.2
303.15 K, x2 = 0.6451	919.71 ± 1.3
303.15 K, x2 = 0.7145	907.86 ± 1.4
303.15 K, x2 = 0.7854	895.61 ± 1.6
303.15 K, x2 = 0.8541	883.57 ± 1.7
303.15 K, x2 = 0.9015	875.19 ± 1.8
303.15 K, x2 = 0.9789	861.34 ± 1.9
313.15 K, x2 = 0	1014.27 ± 0.6
313.15 K, x2 = 0.0522	1006.21 ± 0.57
313.15 K, x2 = 0.1257	994.77 ± 0.58
313.15 K, x2 = 0.1901	984.67 ± 0.67
313.15 K, x2 = 0.2401	976.76 ± 0.74
313.15 K, x2 = 0.321	963.85 ± 0.85
313.15 K, x2 = 0.3952	951.86 ± 0.97
313.15 K, x2 = 0.4654	940.38 ± 1.1
313.15 K, x2 = 0.5321	929.35 ± 1.2
313.15 K, x2 = 0.5984	918.25 ± 1.3
313.15 K, x2 = 0.6541	908.84 ± 1.4
313.15 K, x2 = 0.7248	896.74 ± 1.5
313.15 K, x2 = 0.7895	885.54 ± 1.6
313.15 K, x2 = 0.8412	876.51 ± 1.7
313.15 K, x2 = 0.9215	862.31 ± 1.9
313.15 K, x2 = 0.9759	852.57 ± 2
323.15 K, x2 = 0	1005.62 ± 0.55
323.15 K, x2 = 0.0487	998.04 ± 0.54
323.15 K, x2 = 0.1147	987.71 ± 0.62
323.15 K, x2 = 0.1789	977.59 ± 0.7
323.15 K, x2 = 0.2365	968.43 ± 0.78
323.15 K, x2 = 0.2987	958.46 ± 0.87
323.15 K, x2 = 0.3695	947 ± 0.98
323.15 K, x2 = 0.4351	936.27 ± 1.1
323.15 K, x2 = 0.4954	926.31 ± 1.2
323.15 K, x2 = 0.5654	914.62 ± 1.3
323.15 K, x2 = 0.6215	905.15 ± 1.4
323.15 K, x2 = 0.6945	892.69 ± 1.5
323.15 K, x2 = 0.7658	880.39 ± 1.6
323.15 K, x2 = 0.8321	868.8 ± 1.8
323.15 K, x2 = 0.9201	853.23 ± 1.9
323.15 K, x2 = 0.9758	843.26 ± 2
333.15 K, x2 = 0	996.28 ± 0.54
333.15 K, x2 = 0.0478	988.83 ± 0.59
333.15 K, x2 = 0.1102	979.04 ± 0.67
333.15 K, x2 = 0.1874	966.85 ± 0.77
333.15 K, x2 = 0.2451	957.65 ± 0.85
333.15 K, x2 = 0.3147	946.45 ± 0.95
333.15 K, x2 = 0.3984	932.84 ± 1.1
333.15 K, x2 = 0.4682	921.37 ± 1.2
333.15 K, x2 = 0.5321	910.74 ± 1.3
333.15 K, x2 = 0.5984	899.6 ± 1.4
333.15 K, x2 = 0.6541	890.15 ± 1.5
333.15 K, x2 = 0.7241	878.16 ± 1.6
333.15 K, x2 = 0.7985	865.26 ± 1.8
333.15 K, x2 = 0.8541	855.52 ± 1.9
333.15 K, x2 = 0.921	843.69 ± 2
333.15 K, x2 = 0.98	833.15 ± 2.1
343.15 K, x2 = 0	987.39 ± 0.59
343.15 K, x2 = 0.0512	979.36 ± 0.65
343.15 K, x2 = 0.1245	967.81 ± 0.75
343.15 K, x2 = 0.1895	957.47 ± 0.83
343.15 K, x2 = 0.246	948.41 ± 0.91
343.15 K, x2 = 0.3124	937.69 ± 1
343.15 K, x2 = 0.3841	926 ± 1.1
343.15 K, x2 = 0.4514	914.91 ± 1.2
343.15 K, x2 = 0.5214	903.26 ± 1.3
343.15 K, x2 = 0.5954	890.81 ± 1.4
343.15 K, x2 = 0.6598	879.85 ± 1.6
343.15 K, x2 = 0.7214	869.28 ± 1.7
343.15 K, x2 = 0.7954	856.43 ± 1.8
343.15 K, x2 = 0.8596	845.17 ± 1.9
343.15 K, x2 = 0.9214	834.23 ± 2
343.15 K, x2 = 0.9788	823.98 ± 2.1
353.15 K, x2 = 0	978.62 ± 0.65
353.15 K, x2 = 0.0821	965.64 ± 0.75
353.15 K, x2 = 0.1337	957.42 ± 0.82
353.15 K, x2 = 0.1993	946.92 ± 0.9
353.15 K, x2 = 0.2646	936.37 ± 0.99
353.15 K, x2 = 0.3306	925.62 ± 1.1
353.15 K, x2 = 0.3965	914.8 ± 1.2
353.15 K, x2 = 0.4514	905.7 ± 1.3
353.15 K, x2 = 0.5214	894 ± 1.4
353.15 K, x2 = 0.5984	880.99 ± 1.5
353.15 K, x2 = 0.6514	871.96 ± 1.6
353.15 K, x2 = 0.7214	859.91 ± 1.7
353.15 K, x2 = 0.7984	846.52 ± 1.9
353.15 K, x2 = 0.858	836.05 ± 2
353.15 K, x2 = 0.9265	823.91 ± 2.1
353.15 K, x2 = 0.9799	814.38 ± 2.2
